The values below come from patent US10653659B2, “Compositions comprising a compound from the family of avermectins and an agonist compound for at least one of the retinoic acid receptors for treating acne” (GALDERMA SA, priority 2014, dated 2020).

Several values for one entry are separate records, joined by “and”; a condition that tells them apart may be missing. Identical values can stand only once.

This test deals with patients with acne. Kind of test: Comparative clinical study among patients with acne. The class given is in vivo, human. Conditions: Treatment A (first treatment, retinoids without ivermectin); scale from 0 to 5; one acne patient per line; duration varies per patient. Here is the method: A comparative study was carried out among patients with acne. […] These same patients then received a second treatment (Treatment B) containing ivermectin and were followed over several months.
By way of example, mention may be made of: Differin 0.3%®, Epiduo®, Metrogel® and Epiduo Forte® marketed by Galderma Laboratories, Accutane® from Roche Laboratories, and Ziana® from Medicis Pharmaceutical Corp.
Turning to `CC1=C(/C=C/C(C)=C/C=C/C(C)=C/CO)C(C)(C)CCC1` [retinol 0.05%, retinol], the Satisfaction score is given as 0.

For the compound `COc1ccc(-c2ccc3cc(C(=O)O)ccc3c2)cc1C12CC3CC(CC(C3)C1)C2` [adapalene 0.3%, 6-[3-(1-adamantyl)-4-methoxyphenyl]-2-naphthoic acid], the Satisfaction score is 1 and 0.

`CC1=C(/C=C/C(C)=C/C=C/C(C)=C/C(=O)O)C(C)(C)CCC1` [tretinoin 0.05%, tretinoin] returned a Satisfaction score of 0.
